Where two headings read alike, the source gives them in different places.

Type in all cases: in vivo
Test [1] relates to blackgrass (Alopecurus myosuroides). Put plainly: Test A postemergence. The note with it: Alopecurus myosuroides, post-emergence, 240 h, 125 g ai/ha. An outline of the steps:
(§1)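 Visual injury, scored on a 0–100 scale relative to untreated controls, was recorded about 10 d after application. Treatments were a preemergence soil spray over planted seeds or a postemergence spray on plants at the one- to two-leaf stage, 2 to 10 cm tall, all in loam soil–sand blend in the greenhouse.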

Test [2] relates to ragweed (common ragweed, Ambrosia elatior). In words: Test A postemergence. The note with it: Ambrosia artemisiifolia, post-emergence, 240 h, 125 g ai/ha. An outline of the steps:
as §1

Test [3] has as its system giant foxtail (Setaria faberii). In words: Test A postemergence. The settings on record: Setaria faberi, post-emergence, 240 h, 125 g ai/ha. An outline of the steps:
as §1

Test [4] relates to Kochia (Kochia scoparia). Put plainly: Test A postemergence. The note with it: Bassia scoparia, post-emergence, 240 h, 125 g ai/ha. An outline of the steps: as §1
Test [5] concerns Galium (catchweed bedstraw, Galium aparine). Put plainly: Test A postemergence. The settings on record: Galium, post-emergence, 240 h, 125 g ai/ha. In a few lines: as §1
The test system of test [6] is pigweed (Amaranthus retroflexus). In words: Test A postemergence. The note with it: Amaranthus retroflexus, post-emergence, 240 h, 125 g ai/ha. In a few lines: as §1
The subject of test [7] is ryegrass, Italian (Italian ryegrass, Lolium multiflorum). In words: Test A postemergence. The settings on record: Lolium multiflorum, post-emergence, 240 h, 125 g ai/ha. In a few lines:
as §1

Test [8] concerns barnyardgrass (Echinochloa crus-galli). In words: Test A postemergence. The note with it: Echinochloa crus-galli, post-emergence, 240 h, 125 g ai/ha. An outline of the steps:
as §1

The test system of test [9] is corn (Zea mays). In words: Test A postemergence. The note with it: Zea mays, post-emergence, 240 h, 125 g ai/ha; for Corn plant response rating (crop injury, 0 = no effect, 100 = complete kill) at 125 g/ha: Postemergence, visual injury after approximately 10 d, 0 to 100 scale where 0 is no effect and 100 is complete control; for plant injury at 125 g/ha: postemergence, visual injury rating after approximately 10 d, read-out: Corn plant response rating (0 to 100 scale, 0 no effect, 100 complete control). In a few lines:
as §1

In test [10] the test system is wheat (Triticum aestivum). Put plainly: Test A postemergence. The settings on record: Triticum aestivum, post-emergence, 240 h, 125 g ai/ha. An outline of the steps: as §1
Test [11] relates to giant foxtail (Setaria faberii). In words: Test A preemergence. The note with it: Setaria faberi, pre-emergence, 240 h; for pest or weed control at 125 g/ha: 125 g ai/ha, preemergence, 0 to 100 scale where 0 is no effect and 100 is complete control, read-out: Foxtail, Giant plant response rating; for pest or weed control at 500 g/ha: 500 g ai/ha, Preemergence, visual injury vs untreated controls after approximately 10 d, read-out: Foxtail, Giant plant response rating (0 to 100 scale where 0 is no effect and 100 is complete control). In a few lines: as §1

Test [12] relates to rice (Oryra sativa). Put plainly: Test B flooded paddy test. The settings on record: Oryza sativa, Flood, 250 g ai/ha; scale of 0 to 100 where 0 is no effect and 100 is complete control; read-out: Rice plant response rating. An outline of the steps:
(§2)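 Response scored visually against untreated controls, 0 = no effect and 100 = complete control, 13–15 d after treatment in the greenhouse. Compounds added to paddy water held 3 cm above soil surface. Treatment given at 2-leaf stage.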

Test [13] deals with barnyardgrass (Echinochloa crus-galli). In words: Test B flooded paddy test. The note with it: Echinochloa crus-galli, Flood, 250 g ai/ha; scale of 0 to 100 where 0 is no effect and 100 is complete control; read-out: Barnyardgrass plant response rating. An outline of the steps:
as §2

Test [14] has as its system ducksalad (Heteranthera limosa). In words: Test B flooded paddy test. The note with it: Heteranthera limosa, Flood, 250 g ai/ha; scale of 0 to 100 where 0 is no effect and 100 is complete control; read-out: Ducksalad plant response rating. An outline of the steps:
as §2

For test [15], the system named is sedge, umbrella (small-flower umbrella sedge, Cyperus difformis). Put plainly: Test B flooded paddy test. The note with it: Cyperus difformis, Flood, 250 g ai/ha; scale of 0 to 100 where 0 is no effect and 100 is complete control; read-out: Sedge, Umbrella plant response rating. In a few lines: as §2
Setting [16] is: Postemergence, visual injury after approximately 10 d, 0 to 100 scale where 0 is no effect and 100 is complete control, read-out: Plant response rating, Blackgrass.
Where [17] appears, read: Postemergence, visual injury after approximately 10 d, 0 to 100 scale where 0 is no effect and 100 is complete control, read-out: Plant response rating, Ragweed.
Where [18] appears, read: Postemergence, visual injury after approximately 10 d, 0 to 100 scale where 0 is no effect and 100 is complete control, read-out: Plant response rating, Foxtail, Giant.
Setting [19] is: Postemergence, visual injury after approximately 10 d, 0 to 100 scale where 0 is no effect and 100 is complete control, read-out: Plant response rating, Kochia.
Where [20] appears, read: Postemergence, visual injury after approximately 10 d, 0 to 100 scale where 0 is no effect and 100 is complete control, read-out: Plant response rating, Galium.
Where [21] appears, read: Postemergence, visual injury after approximately 10 d, 0 to 100 scale where 0 is no effect and 100 is complete control, read-out: Plant response rating, Pigweed.
Setting [22] is: Postemergence, visual injury after approximately 10 d, 0 to 100 scale where 0 is no effect and 100 is complete control, read-out: Plant response rating, Ryegrass, Italian.
[23] abbreviates: Postemergence, visual injury after approximately 10 d, 0 to 100 scale where 0 is no effect and 100 is complete control, read-out: Plant response rating, Barnyardgrass.
Setting [24] is: Postemergence, visual injury after approximately 10 d, 0 to 100 scale where 0 is no effect and 100 is complete control, read-out: Plant response rating, Wheat.
[25] abbreviates: postemergence, visual injury rating after approximately 10 d, read-out: Blackgrass plant response rating (0 to 100 scale, 0 no effect, 100 complete control).
The mark [26] stands for this setting: postemergence, visual injury rating after approximately 10 d, read-out: Ragweed plant response rating (0 to 100 scale, 0 no effect, 100 complete control).
[27] abbreviates: postemergence, visual injury rating after approximately 10 d, read-out: Foxtail, Giant plant response rating (0 to 100 scale, 0 no effect, 100 complete control).
Where [28] appears, read: postemergence, visual injury rating after approximately 10 d, read-out: Kochia plant response rating (0 to 100 scale, 0 no effect, 100 complete control).
Setting [29] is: postemergence, visual injury rating after approximately 10 d, read-out: Galium plant response rating (0 to 100 scale, 0 no effect, 100 complete control).
The mark [30] stands for this setting: postemergence, visual injury rating after approximately 10 d, read-out: Pigweed plant response rating (0 to 100 scale, 0 no effect, 100 complete control).
[31] abbreviates: postemergence, visual injury rating after approximately 10 d, read-out: Ryegrass, Italian plant response rating (0 to 100 scale, 0 no effect, 100 complete control).
Where [32] appears, read: postemergence, visual injury rating after approximately 10 d, read-out: Barnyardgrass plant response rating (0 to 100 scale, 0 no effect, 100 complete control).
The mark [33] stands for this setting: postemergence, visual injury rating after approximately 10 d, read-out: Wheat plant response rating (0 to 100 scale, 0 no effect, 100 complete control).

For the compound `CN1C[C@H](c2ccc(C(F)(F)F)cc2)[C@@H](C(=O)Nc2ccccc2[S+](C)[O-])C1=O` (stereo partly shown) [Compound 915], the pest or weed control at 125 g/ha stood at 40% in test [1] (setting [16]); 30% in test [2] (setting [17]); 90% in test [3] (setting [18]); 20% in test [4] (setting [19]); 50% in [5] (setting [20]); 60% in [6] (setting [21]). The pest or weed control at 125 g/ha in test [7] (setting [22]) came out at 30%; in test [8] (setting [23]) it was 90%; in [11], 90%. For the same compound, in [9], the Corn plant response rating (crop injury, 0 = no effect, 100 = complete kill) at 125 g/ha was 0%. Moreover, the plant injury at 125 g/ha in test [10] (setting [24]) is 40%. Also, the pest or weed control at 500 g/ha in test [11] came to 100%. For the same compound, the pest or weed control at 250 g/ha is 20% in test [12], 40% in test [13], 100% in test [14] and 0% in [15].

Regarding `CN1CC[C@H](c2cccc(Cl)c2)[C@@H](C(=O)Nc2cccc(F)c2F)C1=O` [Compound 921], the pest or weed control at 125 g/ha in test [1] (setting [16]) came to 20%; in test [2] (setting [17]) it was 0%; in [3] (setting [18]), 90%; in test [4] (setting [19]) it was 0%; in [5] (setting [20]), 0%; in test [6] (setting [21]), 0%. Further, the pest or weed control at 125 g/ha is 20% in test [7] (setting [22]), 90% in test [8] (setting [23]) and 90% in test [11]. This compound also yielded a Corn plant response rating (crop injury, 0 = no effect, 100 = complete kill) at 125 g/ha in [9] of 20%. Besides, the plant injury at 125 g/ha in test [10] (setting [24]) was 20%. Besides, in [11], the pest or weed control at 500 g/ha came to 100%. In addition, the pest or weed control at 250 g/ha is 20% in test [12], 85% in test [13], 90% in test [14] and 0% in [15].

For `CN1C[C@H](c2cc(F)cc(F)c2)[C@@H](C(=O)Nc2ccccc2[S@+](C)[O-])C1=O` [Compound 871], the pest or weed control at 125 g/ha in [1] (setting [25]) stood at 0%; in [2] (setting [26]) it was 0%; in [3] (setting [27]), 40%; in test [4] (setting [28]), 0%; in [5] (setting [29]), 50%; in [6] (setting [30]), 0%. In addition, the pest or weed control at 125 g/ha in [7] (setting [31]) amounted to 20%; in test [8] (setting [32]) it was 50%; in test [11] it was 80%. Besides, the plant injury at 125 g/ha in [9] and in [10] (setting [33]) was 20% each time. The pest or weed control at 500 g/ha in test [11] came to 80%. The pest or weed control at 250 g/ha in test [12], in [13], in test [14] and in test [15] was 0% in each case.

As for `Cc1cc(C)cc([C@H]2CNC(=O)[C@@H]2C(=O)Nc2cccc(F)c2F)c1` [Compound 889], the pest or weed control at 125 g/ha came to 20% in [1] (setting [25]); 0% in test [2] (setting [26]); 40% in test [3] (setting [27]); 0% in test [4] (setting [28]); 30% in [5] (setting [29]); 0% in [6] (setting [30]). Also, the figures for the pest or weed control at 125 g/ha in test [7] (setting [31]), in test [8] (setting [32]) and in test [11] were 40%, 70% and 90%, respectively. Besides, the plant injury at 125 g/ha is 20% in test [9] and 0% in test [10] (setting [33]). Moreover, in [11], the pest or weed control at 500 g/ha was found to be 90%. The pest or weed control at 250 g/ha in test [12] is 0%; in [13], 60%; in [14], 75%; in test [15], 0%.

For the origin of these results see patent US12077503B2, “Substituted cyclic amides and their use as herbicides” (FMC CORPORATION, priority 2015, dated 2024).
